Three compounds from BindingDB's records for patent US11529321 (Wigen Biomedicine Technology (Shanghai), 2022) can be followed below.

The target in the assay is Microtubule-associated proteins 1A/1B light chain 3B (Homo sapiens, UniProt Q9GZQ8). The experiment in a line: Molecular Level Experiments of Targeting LC3B.
With `O=C1CC(c2ccccc2)CC(=O)C1=CNCCN1CCN(C(=S)Nc2cccc(Cl)c2)CC1` (stereo not drawn) [US11529321, Compound 31], the IC50 entry is “in the range around 9 µM”. As for `C=CCNC(=S)N1CCN(CCNC=C2C(=O)CC(c3ccco3)CC2=O)CC1` (stereo not drawn) [US11529321, Compound 39], the entry is “in the range around 9 µM”; as for `CCCCCC(=O)N1CCN(CCNC=C2C(=O)CC(c3ccco3)CC2=O)CC1` (stereo not drawn) [US11529321, Compound 58], “in the range around 9 µM”.
